Measured values reported in ChEMBL document CHEMBL2010722, “Structure-activity relationship study of beta-carboline derivatives as haspin kinase inhibitors” (Bioorg Med Chem Lett, 2012).

Experiments:
[1] = biological target: Tyrosine-protein kinase Fes/Fps (Homo sapiens) (UniProt P07332); assay: Inhibition of FES at 10 uM
[2] = biological target: Protein kinase C theta type (Homo sapiens) (UniProt Q04759); assay: Inhibition of PKCq at 10 uM
[3] = biological target: Casein kinase I isoform epsilon (Homo sapiens) (UniProt P49674); assay: Inhibition of CK1e at 10 uM
[4] = biological target: [Pyruvate dehydrogenase (acetyl-transferring)] kinase isozyme 4, mitochondrial (Homo sapiens) (UniProt Q16654); assay: Inhibition of PDHK4 at 10 uM
[5] = biological target: Sphingosine kinase 1 (Homo sapiens) (UniProt Q9NYA1); assay: Inhibition of SPHK1 at 10 uM
[6] = biological target: Serine/threonine-protein kinase Nek4 (Homo sapiens) (UniProt P51957); assay: Inhibition of NEK4 at 10 uM
[7] = biological target: Protein-tyrosine kinase 6 (Homo sapiens) (UniProt Q13882); assay: Inhibition of BRK at 10 uM
[8] = biological target: Mitogen-activated protein kinase 12 (Homo sapiens) (UniProt P53778); assay: Inhibition of p38gamma at 10 uM
[9] = biological target: Ephrin type-B receptor 3 (Homo sapiens) (UniProt P54753); assay: Inhibition of EPHB3 at 10 uM
[10] = biological target: Serine/threonine-protein kinase MARK1 (Homo sapiens) (UniProt Q9P0L2); assay: Inhibition of MARK1 at 10 uM
[11] = biological target: Homeodomain-interacting protein kinase 4 (Homo sapiens) (UniProt Q8NE63); assay: Inhibition of HIPK4 at 10 uM
[12] = biological target: Tyrosine-protein kinase ITK/TSK (Homo sapiens) (UniProt Q08881); assay: Inhibition of ITK at 10 uM
[13] = biological target: PAS domain-containing serine/threonine-protein kinase (Homo sapiens) (UniProt Q96RG2); assay: Inhibition of PASK at 10 uM
[14] = biological target: Hepatocyte growth factor receptor (Homo sapiens) (UniProt P08581); assay: Inhibition of MET at 10 uM
[15] = biological target: Mitogen-activated protein kinase kinase kinase 3 (Homo sapiens) (UniProt Q99759); assay: Inhibition of MAP3K3 at 10 uM
[16] = biological target: Serine/threonine-protein kinase MRCK alpha (Homo sapiens) (UniProt Q5VT25); assay: Inhibition of MRCKa at 10 uM
[17] = biological target: Interleukin-1 receptor-associated kinase 4 (Homo sapiens) (UniProt Q9NWZ3); assay: Inhibition of IRAK4 at 10 uM
[18] = biological target: Platelet-derived growth factor receptor beta (Homo sapiens) (UniProt P09619); assay: Inhibition of PDGFRb at 10 uM
[19] = biological target: Tyrosine-protein kinase FRK (Homo sapiens) (UniProt P42685); assay: Inhibition of FRK at 10 uM
[20] = biological target: Tyrosine-protein kinase JAK3 (Homo sapiens) (UniProt P52333); assay: Inhibition of JAK3 at 10 uM
[21] = biological target: Mitogen-activated protein kinase 8 (Homo sapiens) (UniProt P45983); assay: Inhibition of JNK1 at 10 uM
[22] = biological target: NT-3 growth factor receptor (Homo sapiens) (UniProt Q16288); assay: Inhibition of TRKC at 10 uM
[23] = biological target: Serine/threonine-protein kinase TBK1 (Homo sapiens) (UniProt Q9UHD2); assay: Inhibition of TBK1 at 10 uM
[24] = biological target: Protein kinase C gamma type (Homo sapiens) (UniProt P05129); assay: Inhibition of PKCgamma at 10 uM
[25] = biological target: Dual specificity protein kinase CLK2 (Homo sapiens) (UniProt P49760); assay: Inhibition of CLK2 at 10 uM
[26] = biological target: Casein kinase I isoform delta (Homo sapiens) (UniProt P48730); assay: Inhibition of CK1d at 10 uM
[27] = biological target: Tyrosine-protein kinase Lyn (Homo sapiens) (UniProt P07948); assay: Inhibition of LYNa at 10 uM
[28] = biological target: Megakaryocyte-associated tyrosine-protein kinase (Homo sapiens) (UniProt P42679); assay: Inhibition of CTK at 10 uM
[29] = biological target: Epidermal growth factor receptor (Homo sapiens) (UniProt P00533); assay: Inhibition of EGFR at 10 uM
[30] = biological target: Serine/threonine-protein kinase pim-1 (Homo sapiens) (UniProt P11309); assay: Inhibition of PIM1 at 10 uM
[31] = biological target: CDK3/cyclin E (Homo sapiens) (UniProt P24864+O96020+Q00526); assay: Inhibition of CDK3-Cyclin E1 at 10 uM; assay type: protein-complex assay
[32] = biological target: Dual specificity mitogen-activated protein kinase kinase 3 (Homo sapiens) (UniProt P46734); assay: Inhibition of MAP2K3 at 10 uM
[33] = biological target: Phosphorylase b kinase gamma catalytic chain, liver/testis isoform (Homo sapiens) (UniProt P15735); assay: Inhibition of PHKG2 at 10 uM
[34] = biological target: Serine/threonine-protein kinase D1 (Homo sapiens) (UniProt Q15139); assay: Inhibition of PKD1 at 10 uM
[35] = biological target: Tyrosine-protein kinase CSK (Homo sapiens) (UniProt P41240); assay: Inhibition of CSK at 10 uM
[36] = biological target: ALK tyrosine kinase receptor (Homo sapiens) (UniProt Q9UM73); assay: Inhibition of ALK at 10 uM
[37] = biological target: Serine/threonine-protein kinase 26 (Homo sapiens) (UniProt Q9P289); assay: Inhibition of MST4 at 10 uM
[38] = biological target: CDC7/DBF4 (Cell division cycle 7-related protein kinase/Activator of S phase kinase) (Homo sapiens) (UniProt Q9UBU7+O00311); assay: Inhibition of CDC7-Dbf4 at 10 uM; assay type: protein-complex assay
[39] = biological target: cAMP-dependent protein kinase catalytic subunit PRKX (Homo sapiens) (UniProt P51817); assay: Inhibition of PRKX at 10 uM
[40] = biological target: MAP kinase-interacting serine/threonine-protein kinase 2 (Homo sapiens) (UniProt Q9HBH9); assay: Inhibition of MNK2 at 10 uM
[41] = biological target: LIM domain kinase 1 (Homo sapiens) (UniProt P53667); assay: Inhibition of LIMK1 at 10 uM
[42] = biological target: CDK6/cyclin D3 (Homo sapiens) (UniProt P30281+Q00534); assay: Inhibition of CDK6-CycD3 at 10 uM; assay type: protein-complex assay
[43] = biological target: Serine/threonine-protein kinase Sgk3 (Homo sapiens) (UniProt Q96BR1); assay: Inhibition of SGK3 at 10 uM
[44] = biological target: Homeodomain-interacting protein kinase 3 (Homo sapiens) (UniProt Q9H422); assay: Inhibition of HIPK3 at 10 uM
[45] = test system: Epidermal growth factor receptor (Homo sapiens), P00533 [T790M]; assay: Inhibition of EGFR T790M mutant at 10 uM; assay type: protein assay
[46] = biological target: Serine/threonine-protein kinase 10 (Homo sapiens) (UniProt O94804); assay: Inhibition of LOK at 10 uM
[47] = biological target: Wee1-like protein kinase (Homo sapiens) (UniProt P30291); assay: Inhibition of WEE1 at 10 uM

Chain of Megakaryocyte-associated tyrosine-protein kinase (Homo sapiens) (P42679 whole entry): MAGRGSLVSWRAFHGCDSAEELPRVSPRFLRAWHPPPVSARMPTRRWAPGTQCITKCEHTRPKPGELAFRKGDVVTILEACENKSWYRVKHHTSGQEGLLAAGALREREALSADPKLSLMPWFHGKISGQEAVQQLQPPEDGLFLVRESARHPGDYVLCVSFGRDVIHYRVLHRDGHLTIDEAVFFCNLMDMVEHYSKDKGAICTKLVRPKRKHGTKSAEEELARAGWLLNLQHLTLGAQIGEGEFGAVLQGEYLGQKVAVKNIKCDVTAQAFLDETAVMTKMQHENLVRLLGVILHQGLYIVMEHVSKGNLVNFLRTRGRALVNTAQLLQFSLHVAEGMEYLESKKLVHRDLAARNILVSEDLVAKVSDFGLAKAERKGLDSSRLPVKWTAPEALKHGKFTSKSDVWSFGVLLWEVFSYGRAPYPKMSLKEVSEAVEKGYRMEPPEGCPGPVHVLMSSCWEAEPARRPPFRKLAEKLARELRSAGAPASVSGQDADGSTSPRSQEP
Chain of Tyrosine-protein kinase Lyn (Homo sapiens) (P07948 2-512 limits assumed): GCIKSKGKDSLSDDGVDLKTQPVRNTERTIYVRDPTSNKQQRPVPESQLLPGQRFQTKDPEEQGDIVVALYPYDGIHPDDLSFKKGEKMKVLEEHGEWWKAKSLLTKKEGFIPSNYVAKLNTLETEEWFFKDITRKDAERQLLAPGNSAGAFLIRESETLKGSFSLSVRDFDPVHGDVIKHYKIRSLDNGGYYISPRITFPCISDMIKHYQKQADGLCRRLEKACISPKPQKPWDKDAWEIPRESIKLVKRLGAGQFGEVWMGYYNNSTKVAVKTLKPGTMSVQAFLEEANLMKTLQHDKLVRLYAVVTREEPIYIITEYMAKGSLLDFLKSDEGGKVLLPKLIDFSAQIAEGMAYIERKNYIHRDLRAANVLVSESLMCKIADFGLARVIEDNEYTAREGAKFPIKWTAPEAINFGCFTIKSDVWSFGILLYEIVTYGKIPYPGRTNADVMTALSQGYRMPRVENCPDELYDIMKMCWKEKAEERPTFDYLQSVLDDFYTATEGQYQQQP
Chain of ALK tyrosine kinase receptor (Homo sapiens) (Q9UM73 19-1620 limits assumed): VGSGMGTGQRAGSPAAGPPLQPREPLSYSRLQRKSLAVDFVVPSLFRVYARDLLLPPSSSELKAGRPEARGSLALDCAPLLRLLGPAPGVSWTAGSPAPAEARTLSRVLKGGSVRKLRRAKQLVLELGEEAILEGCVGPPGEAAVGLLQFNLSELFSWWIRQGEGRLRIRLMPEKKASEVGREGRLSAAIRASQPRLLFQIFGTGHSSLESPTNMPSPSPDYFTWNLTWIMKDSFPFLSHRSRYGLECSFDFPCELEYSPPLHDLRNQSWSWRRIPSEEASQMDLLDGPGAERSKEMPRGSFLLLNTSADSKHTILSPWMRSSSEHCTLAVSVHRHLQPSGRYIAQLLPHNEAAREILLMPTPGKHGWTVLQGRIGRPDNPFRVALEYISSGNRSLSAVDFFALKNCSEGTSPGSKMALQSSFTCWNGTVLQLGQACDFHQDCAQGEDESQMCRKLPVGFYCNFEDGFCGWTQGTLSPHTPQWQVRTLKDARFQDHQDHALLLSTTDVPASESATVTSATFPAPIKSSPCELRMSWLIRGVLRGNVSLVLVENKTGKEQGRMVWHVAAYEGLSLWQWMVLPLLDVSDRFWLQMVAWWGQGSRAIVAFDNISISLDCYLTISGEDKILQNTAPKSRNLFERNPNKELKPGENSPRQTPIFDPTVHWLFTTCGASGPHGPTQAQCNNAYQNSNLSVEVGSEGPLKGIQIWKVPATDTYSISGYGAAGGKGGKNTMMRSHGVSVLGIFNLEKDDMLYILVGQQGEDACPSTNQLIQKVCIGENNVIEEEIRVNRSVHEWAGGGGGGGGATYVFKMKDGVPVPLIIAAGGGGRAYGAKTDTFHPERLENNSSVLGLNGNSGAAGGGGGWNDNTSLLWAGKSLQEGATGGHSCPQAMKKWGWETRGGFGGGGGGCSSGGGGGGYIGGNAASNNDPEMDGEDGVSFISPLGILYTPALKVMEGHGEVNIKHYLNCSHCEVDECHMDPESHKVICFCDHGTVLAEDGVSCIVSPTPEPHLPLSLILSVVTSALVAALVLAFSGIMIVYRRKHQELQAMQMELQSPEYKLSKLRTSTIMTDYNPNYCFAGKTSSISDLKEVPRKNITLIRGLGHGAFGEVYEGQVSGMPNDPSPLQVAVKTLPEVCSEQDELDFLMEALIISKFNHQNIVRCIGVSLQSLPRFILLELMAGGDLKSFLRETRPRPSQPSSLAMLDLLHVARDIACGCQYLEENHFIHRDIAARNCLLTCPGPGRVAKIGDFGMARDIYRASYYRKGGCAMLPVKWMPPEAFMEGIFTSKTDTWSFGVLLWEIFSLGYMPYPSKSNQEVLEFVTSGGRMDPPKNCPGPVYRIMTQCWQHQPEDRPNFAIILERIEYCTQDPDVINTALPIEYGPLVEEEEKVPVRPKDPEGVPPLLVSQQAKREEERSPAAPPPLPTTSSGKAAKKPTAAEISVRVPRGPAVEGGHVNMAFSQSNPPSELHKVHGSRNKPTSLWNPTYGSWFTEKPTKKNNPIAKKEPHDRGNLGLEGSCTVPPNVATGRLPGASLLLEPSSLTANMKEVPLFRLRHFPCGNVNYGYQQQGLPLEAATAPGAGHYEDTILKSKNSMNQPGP
Chain of Serine/threonine-protein kinase MRCK alpha (Homo sapiens) (Q5VT25 whole entry): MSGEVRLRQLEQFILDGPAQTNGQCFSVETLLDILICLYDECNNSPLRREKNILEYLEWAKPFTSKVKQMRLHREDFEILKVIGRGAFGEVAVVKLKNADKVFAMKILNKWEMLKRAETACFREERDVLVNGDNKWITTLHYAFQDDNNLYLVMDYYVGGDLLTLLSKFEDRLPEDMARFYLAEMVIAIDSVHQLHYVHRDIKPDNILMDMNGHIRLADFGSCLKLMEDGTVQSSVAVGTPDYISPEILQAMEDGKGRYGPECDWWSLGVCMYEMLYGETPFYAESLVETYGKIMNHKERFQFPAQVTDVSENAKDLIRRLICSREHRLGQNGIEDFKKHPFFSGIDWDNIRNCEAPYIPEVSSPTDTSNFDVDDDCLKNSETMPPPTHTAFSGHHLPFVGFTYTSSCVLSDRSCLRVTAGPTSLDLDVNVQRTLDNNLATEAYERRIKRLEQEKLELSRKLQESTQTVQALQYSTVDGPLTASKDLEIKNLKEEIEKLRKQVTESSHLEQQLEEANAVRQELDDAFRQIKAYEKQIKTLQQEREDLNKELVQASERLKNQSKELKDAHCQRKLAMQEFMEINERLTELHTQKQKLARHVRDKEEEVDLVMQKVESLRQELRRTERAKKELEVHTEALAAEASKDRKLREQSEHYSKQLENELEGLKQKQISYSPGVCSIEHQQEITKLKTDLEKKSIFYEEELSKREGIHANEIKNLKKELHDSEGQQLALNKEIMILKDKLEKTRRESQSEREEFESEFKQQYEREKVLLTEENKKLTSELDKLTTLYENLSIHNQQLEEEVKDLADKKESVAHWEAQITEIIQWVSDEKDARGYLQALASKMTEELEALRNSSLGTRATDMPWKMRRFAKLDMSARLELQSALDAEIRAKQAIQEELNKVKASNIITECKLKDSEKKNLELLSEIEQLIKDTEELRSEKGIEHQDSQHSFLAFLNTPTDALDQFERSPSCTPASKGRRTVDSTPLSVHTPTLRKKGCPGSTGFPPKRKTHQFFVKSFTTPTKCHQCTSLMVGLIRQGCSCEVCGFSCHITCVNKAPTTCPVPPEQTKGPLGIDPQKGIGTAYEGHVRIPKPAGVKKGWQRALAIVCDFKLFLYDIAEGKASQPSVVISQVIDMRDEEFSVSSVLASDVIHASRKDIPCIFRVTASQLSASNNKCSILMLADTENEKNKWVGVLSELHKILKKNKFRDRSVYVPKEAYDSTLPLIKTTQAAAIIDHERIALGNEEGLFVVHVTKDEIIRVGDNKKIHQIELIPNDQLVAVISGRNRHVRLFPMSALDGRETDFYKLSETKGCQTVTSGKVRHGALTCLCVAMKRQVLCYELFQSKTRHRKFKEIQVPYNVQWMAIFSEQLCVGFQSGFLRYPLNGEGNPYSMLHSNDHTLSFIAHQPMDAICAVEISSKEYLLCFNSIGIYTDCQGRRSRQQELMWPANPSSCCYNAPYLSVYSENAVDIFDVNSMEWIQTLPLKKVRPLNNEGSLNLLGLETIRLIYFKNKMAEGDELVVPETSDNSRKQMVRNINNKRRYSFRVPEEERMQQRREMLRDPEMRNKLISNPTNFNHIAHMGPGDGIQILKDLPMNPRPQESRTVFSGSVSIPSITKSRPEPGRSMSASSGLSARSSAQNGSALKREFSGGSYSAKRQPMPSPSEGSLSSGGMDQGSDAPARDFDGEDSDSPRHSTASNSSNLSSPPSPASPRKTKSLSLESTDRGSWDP

## COc1ccc2c3ccnc(C(F)(F)F)c3n(CCCCN)c2c1
[1]
  inhibition: 4%
[2]
  inhibition: 42%
[3]
  inhibition: 41%
[4]
  inhibition: 34%
[5]
  inhibition: 0%
[6]
  inhibition: 4%
[7]
  inhibition: 1%
[8]
  inhibition: 66%
[9]
  inhibition: 0%
[10]
  inhibition: 48%
[11]
  inhibition: 28%
[12]
  inhibition: 7%
[13]
  inhibition: 92%
[14]
  inhibition: 4%
[15]
  inhibition: 0%
[16]
  inhibition: 18%
[17]
  inhibition: 16%
[18]
  inhibition: 73%
[19]
  inhibition: 10%
[20]
  inhibition: 4%
[21]
  inhibition: 44%
[22]
  inhibition: 25%
[23]
  inhibition: 4%
[24]
  inhibition: 22%
[25]
  inhibition: 99%
[26]
  inhibition: 93%
[27]
  inhibition: 7%
[28]
  inhibition: 25%
[29]
  inhibition: 13%
[30]
  inhibition: 91%
[31]
  inhibition: 22%
[32]
  inhibition: 38%
[33]
  inhibition: 26%
[34]
  inhibition: 85%
[35]
  inhibition: 5%
[36]
  inhibition: 5%
[37]
  inhibition: 0%
[38]
  inhibition: 14%
[39]
  inhibition: 14%
[40]
  inhibition: 34%
[41]
  inhibition: 8%
[42]
  inhibition: 28%
[43]
  inhibition: 13%
[44]
  inhibition: 49%
[45]
  inhibition: 3%
[46]
  inhibition: 20%
[47]
  inhibition: 0%
